The source made the active and inactive calls. How the calls were made is not given here.
Test system: CCRIS mutagenicity, Ames/micronucleus/aberration tests
Assay: CCRIS mutagenicity studies
Conditions: Test System: AMES SALMONELLA TYPHIMURIUM
[1] = Strain/Indicator: TA98, Metabolic Activation: NONE, Method: PREINCUBATION
[2] = Strain/Indicator: TA100, Metabolic Activation: NONE, Method: PREINCUBATION
[3] = Strain/Indicator: TA98, Metabolic Activation: NONE, Method: STANDARD PLATE
[4] = Strain/Indicator: TA100, Metabolic Activation: NONE, Method: STANDARD PLATE
[5] = Strain/Indicator: TA1538, Metabolic Activation: NONE, Method: STANDARD PLATE

For `C/C(C=O)=C\c1ccccc1`, the mutagenic call (Strain/Indicator: TA98, Metabolic Activation: HAMSTER, LIVER, S-9, AROCLOR 1254 (10%), Method: PREINCUBATION) was “inactive; negative”, the mutagenic call [1] was “inactive; negative” and the mutagenic call (Strain/Indicator: TA98, Metabolic Activation: RAT, LIVER, S-9, AROCLOR 1254 (10%), Method: PREINCUBATION) was “inactive; negative”. The mutagenic call (Strain/Indicator: TA100, Metabolic Activation: HAMSTER, LIVER, S-9, AROCLOR 1254 (10%), Method: PREINCUBATION) was “inactive; negative”, the mutagenic call [2] was “inactive; negative” and the mutagenic call (Strain/Indicator: TA100, Metabolic Activation: RAT LIVER S-9, AROCLOR 1254, Method: PREINCUBATION) was “inactive; negative”. For the same compound, the mutagenic call (Strain/Indicator: TA100, Metabolic Activation: RAT, LIVER, S-9, AROCLOR 1254 (10%), Method: PREINCUBATION) was “inactive; negative”, the mutagenic call (Strain/Indicator: TA102, Metabolic Activation: MOUSE LIVER S-9, AROCLOR 1254, Method: PREINCUBATION) was “inactive; negative” and the mutagenic call (Strain/Indicator: TA102, Metabolic Activation: NONE, Method: PREINCUBATION) was “inactive; negative”. For the same compound, the mutagenic call (Strain/Indicator: TA102, Metabolic Activation: RAT LIVER S-9, AROCLOR 1254, Method: PREINCUBATION) was “inactive; negative”, the mutagenic call (Strain/Indicator: TA104, Metabolic Activation: MOUSE LIVER S-9, AROCLOR 1254, Method: PREINCUBATION) was “inactive; negative” and the mutagenic call (Strain/Indicator: TA104, Metabolic Activation: NONE, Method: PREINCUBATION) was “inactive; negative”. For the same compound, the mutagenic call (Strain/Indicator: TA104, Metabolic Activation: RAT LIVER S-9, AROCLOR 1254, Method: PREINCUBATION) was “inactive; negative”, the mutagenic call (Strain/Indicator: TA1535, Metabolic Activation: HAMSTER, LIVER, S-9, AROCLOR 1254 (10%), Method: PREINCUBATION) was “inactive; negative” and the mutagenic call (Strain/Indicator: TA1535, Metabolic Activation: NONE, Method: PREINCUBATION) was “inactive; negative”. For the same compound, the mutagenic call (Strain/Indicator: TA1535, Metabolic Activation: RAT, LIVER, S-9, AROCLOR 1254 (10%), Method: PREINCUBATION) was “inactive; negative”, the mutagenic call (Strain/Indicator: TA1537, Metabolic Activation: HAMSTER, LIVER, S-9, AROCLOR 1254 (10%), Method: PREINCUBATION) was “inactive; negative” and the mutagenic call (Strain/Indicator: TA1537, Metabolic Activation: NONE, Method: PREINCUBATION) was “inactive; negative”. The mutagenic call (Strain/Indicator: TA1537, Metabolic Activation: RAT, LIVER, S-9, AROCLOR 1254 (10%), Method: PREINCUBATION) was “inactive; negative”.
In the case of `Nc1nc(-c2ccc([N+](=O)[O-])cc2)nc2c1ncn2[C@H]1C[C@H](O)[C@@H](CO)O1`, the mutagenic call (Strain/Indicator: TA98(1,8-DNP), Metabolic Activation: NONE, Method: PREINCUBATION) was “active; positive”, the mutagenic call (Strain/Indicator: TA98(1,8-DNP), Metabolic Activation: RAT, LIVER, S-9, PCB, Method: PREINCUBATION) was “active; positive” and the mutagenic call (Strain/Indicator: TA98(NR), Metabolic Activation: NONE, Method: PREINCUBATION) was “active; positive”. For the same compound, the mutagenic call (Strain/Indicator: TA98(NR), Metabolic Activation: RAT, LIVER, S-9, PCB, Method: PREINCUBATION) was “active; positive”, the mutagenic call [1] was “active; positive” and the mutagenic call (Strain/Indicator: TA98, Metabolic Activation: RAT, LIVER, S-9, PCB, Method: PREINCUBATION) was “active; positive”. The mutagenic call (Strain/Indicator: TA100(1,8-DNP), Metabolic Activation: NONE, Method: PREINCUBATION) was “active; positive”, the mutagenic call (Strain/Indicator: TA100(NR), Metabolic Activation: NONE, Method: PREINCUBATION) was “active; positive” and the mutagenic call (Strain/Indicator: TA100(NR), Metabolic Activation: RAT, LIVER, S-9, PCB, Method: PREINCUBATION) was “active; positive”. For the same compound, the mutagenic call [2] was “active; positive”, the mutagenic call (Strain/Indicator: TA100, Metabolic Activation: RAT, LIVER, S-9, PCB, Method: PREINCUBATION) was “active; positive” and the mutagenic call (Strain/Indicator: YG1020, Metabolic Activation: NONE, Method: PREINCUBATION) was “active; positive”. The mutagenic call (Strain/Indicator: YG1020, Metabolic Activation: RAT, LIVER, S-9, PCB, Method: PREINCUBATION) was “active; positive”, the mutagenic call (Strain/Indicator: YG1021, Metabolic Activation: NONE, Method: PREINCUBATION) was “active; positive” and the mutagenic call (Strain/Indicator: YG1021, Metabolic Activation: RAT, LIVER, S-9, PCB, Method: PREINCUBATION) was “active; positive”. The mutagenic call (Strain/Indicator: YG1024, Metabolic Activation: NONE, Method: PREINCUBATION) was “active; positive”, the mutagenic call (Strain/Indicator: YG1024, Metabolic Activation: RAT, LIVER, S-9, PCB, Method: PREINCUBATION) was “active; positive” and the mutagenic call (Strain/Indicator: YG1025, Metabolic Activation: NONE, Method: PREINCUBATION) was “active; positive”. For the same compound, the mutagenic call (Strain/Indicator: YG1025, Metabolic Activation: RAT, LIVER, S-9, PCB, Method: PREINCUBATION) was “active; positive”, the mutagenic call (Strain/Indicator: YG1026, Metabolic Activation: NONE, Method: PREINCUBATION) was “active; positive” and the mutagenic call (Strain/Indicator: YG1026, Metabolic Activation: RAT, LIVER, S-9, PCB, Method: PREINCUBATION) was “active; positive”. The mutagenic call (Strain/Indicator: YG1029, Metabolic Activation: NONE, Method: PREINCUBATION) was “active; positive” and the mutagenic call (Strain/Indicator: YG1029, Metabolic Activation: RAT, LIVER, S-9, PCB, Method: PREINCUBATION) was “active; positive”.
For `c1ccc2c(c1)ccc1nc3c(ccc4ccccc43)cc12`, the mutagenic call (Strain/Indicator: TA100, Metabolic Activation: RAT, LIVER, S-9, PHENOBARBITAL AND 5,6-BENZOFLAVONE, Method: STANDARD PLATE) was “active; positive”.
`Cc1cn2c([N+](=O)[O-])c(-c3ccc([N+](=O)[O-])cc3)nc2s1` was tested, and the mutagenic call [3] was “active; positive”, the mutagenic call [4] was “active; positive” and the mutagenic call (Strain/Indicator: TA1535, Metabolic Activation: NONE, Method: STANDARD PLATE) was “active; positive”. For the same compound, the mutagenic call (Strain/Indicator: TA1537, Metabolic Activation: NONE, Method: STANDARD PLATE) was “active; positive” and the mutagenic call [5] was “active; positive”.
In the case of `CC(=O)[C@]1(O)Cc2c(O)c3c(c(O)c2[C@@H](O)C1)C(=O)c1c(O)cccc1C3=O`, the mutagenic call [3] was “active; positive”, the mutagenic call (Strain/Indicator: TA98, Metabolic Activation: RAT, LIVER, S-9, AROCLOR 1254, Method: STANDARD PLATE) was “active; positive” and the mutagenic call [4] was “inactive; negative”. The mutagenic call [5] was “inactive; negative”.
For `O=S(=O)(O)c1ccc2cc(Oc3ccc4cc(S(=O)(=O)O)ccc4c3)ccc2c1`, the mutagenic call [1] was “inactive; negative”, the mutagenic call (Strain/Indicator: TA98, Metabolic Activation: RAT, LIVER, S-9, PHENOBARBITAL, Method: PREINCUBATION) was “inactive; negative” and the mutagenic call [2] was “inactive; negative”. The mutagenic call (Strain/Indicator: TA100, Metabolic Activation: RAT, LIVER, S-9, PHENOBARBITAL, Method: PREINCUBATION) was “inactive; negative”.
For `Cn1c(N=[N+]=[N-])nc2ccccc21`, the mutagenic call [3] was “active; positive”.
